Reference: ChEMBL document CHEMBL4422622, “Identification of Mineralocorticoid Receptor Modulators with Low Impact on Electrolyte Homeostasis but Maintained Organ Protection” (J Med Chem, 2019)
In brackets after ≈: the same amount, converted by molar mass.

Legend:
[1] = Terminal half life in Han Wistar rat at 1.2 mg/kg, iv by LC-MS/MS analysis; assay type: ADME, organism-based; conditions: in vivo, read-out: beta t1/2 (converted)
[2] = Apparent permeability in human Caco2 cells at 10 uM after 45 to 120 mins by LC/MS/MS analysis; assay type: ADME, cell-based; conditions: Caco-2
[3] = Fraction unbound in Han Wistar rat plasma at 1 uM after 4 hrs by LC/MS/MS analysis; assay type: ADME, cell-free
[4] = Octanol-water partitioning co-efficient, log D of the compound at pH 7.4 by LC/MS/MS analysis; assay type: physicochemical
[5] = Volume of distribution at steady state in Han Wistar rat at 1.2 mg/kg, iv by LC-MS/MS analysis; assay type: ADME, organism-based; conditions: in vivo, read-out: Vdss
[6] = target: T1, Mineralocorticoid receptor (Rattus norvegicus, UniProt P22199)
T1 sequence (P22199 whole entry): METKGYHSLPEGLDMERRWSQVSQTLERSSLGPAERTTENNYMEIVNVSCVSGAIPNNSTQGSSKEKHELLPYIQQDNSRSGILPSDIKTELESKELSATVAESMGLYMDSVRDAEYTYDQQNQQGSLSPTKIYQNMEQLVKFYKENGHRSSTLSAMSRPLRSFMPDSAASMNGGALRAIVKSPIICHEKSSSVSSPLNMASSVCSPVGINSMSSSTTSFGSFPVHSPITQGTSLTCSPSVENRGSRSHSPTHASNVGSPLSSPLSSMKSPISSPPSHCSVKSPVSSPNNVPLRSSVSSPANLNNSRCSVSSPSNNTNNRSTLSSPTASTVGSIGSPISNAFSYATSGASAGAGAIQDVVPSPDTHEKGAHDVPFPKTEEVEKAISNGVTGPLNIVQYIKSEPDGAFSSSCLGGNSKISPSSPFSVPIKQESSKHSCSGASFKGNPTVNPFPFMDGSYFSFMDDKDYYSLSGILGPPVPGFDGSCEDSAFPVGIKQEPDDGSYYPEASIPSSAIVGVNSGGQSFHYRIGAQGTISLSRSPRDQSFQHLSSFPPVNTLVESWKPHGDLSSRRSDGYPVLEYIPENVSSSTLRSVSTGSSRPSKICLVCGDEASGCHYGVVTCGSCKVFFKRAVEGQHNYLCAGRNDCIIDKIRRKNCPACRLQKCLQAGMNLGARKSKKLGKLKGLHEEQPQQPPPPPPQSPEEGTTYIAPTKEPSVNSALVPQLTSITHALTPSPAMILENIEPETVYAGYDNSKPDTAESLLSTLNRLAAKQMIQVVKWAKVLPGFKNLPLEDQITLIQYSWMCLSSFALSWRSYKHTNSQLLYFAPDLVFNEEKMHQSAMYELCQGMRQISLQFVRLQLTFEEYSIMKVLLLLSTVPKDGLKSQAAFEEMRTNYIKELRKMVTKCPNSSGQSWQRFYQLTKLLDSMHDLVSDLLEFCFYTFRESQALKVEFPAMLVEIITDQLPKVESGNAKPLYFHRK
Description: (§1) Antagonist activity at gal4-fused rat mineralocorticoid receptor LBD in expressed in human U2OS cells by luciferase reporter gene assay

[7] = Intrinsic clearance in Han Wistar rat hepatocytes assessed per million cells at 1 uM after 4 hrs by LC/MS/MS analysis; assay type: ADME, cell-based, Hepatocyte; conditions: read-out: CLH
Rattus norvegicus = experiment: Induction of hyperkalemia in Sprague-Dawley rat fed on low salt diet for 72 hrs assessed as increase in Na+/K+ ratio in urine administered via oral gavage after 8 hrs; assay type: organism-based; conditions: in vivo
[8] = Oral bioavailability in Han Wistar rat at […] by LC-MS/MS analysis; assay type: ADME, organism-based; conditions: in vivo
[9] = Intrinsic clearance in human hepatocytes assessed per million cells at 1 uM measured up to 120 mins in presence of NADPH by LC-MS/MS analysis; assay type: ADME, cell-based, Hepatocyte; conditions: read-out: CLH
[10] = Clearance in Han Wistar rat at 1.2 mg/kg, iv by LC-MS/MS analysis; assay type: ADME, organism-based; conditions: in vivo
Progesterone receptor = target: T2, Progesterone receptor (Homo sapiens, UniProt P06401); experiment: Binding affinity to recombinant human progesterone receptor LBD by fluormone PL red-fluorescence polarization assay
T2 sequence (P06401 whole entry): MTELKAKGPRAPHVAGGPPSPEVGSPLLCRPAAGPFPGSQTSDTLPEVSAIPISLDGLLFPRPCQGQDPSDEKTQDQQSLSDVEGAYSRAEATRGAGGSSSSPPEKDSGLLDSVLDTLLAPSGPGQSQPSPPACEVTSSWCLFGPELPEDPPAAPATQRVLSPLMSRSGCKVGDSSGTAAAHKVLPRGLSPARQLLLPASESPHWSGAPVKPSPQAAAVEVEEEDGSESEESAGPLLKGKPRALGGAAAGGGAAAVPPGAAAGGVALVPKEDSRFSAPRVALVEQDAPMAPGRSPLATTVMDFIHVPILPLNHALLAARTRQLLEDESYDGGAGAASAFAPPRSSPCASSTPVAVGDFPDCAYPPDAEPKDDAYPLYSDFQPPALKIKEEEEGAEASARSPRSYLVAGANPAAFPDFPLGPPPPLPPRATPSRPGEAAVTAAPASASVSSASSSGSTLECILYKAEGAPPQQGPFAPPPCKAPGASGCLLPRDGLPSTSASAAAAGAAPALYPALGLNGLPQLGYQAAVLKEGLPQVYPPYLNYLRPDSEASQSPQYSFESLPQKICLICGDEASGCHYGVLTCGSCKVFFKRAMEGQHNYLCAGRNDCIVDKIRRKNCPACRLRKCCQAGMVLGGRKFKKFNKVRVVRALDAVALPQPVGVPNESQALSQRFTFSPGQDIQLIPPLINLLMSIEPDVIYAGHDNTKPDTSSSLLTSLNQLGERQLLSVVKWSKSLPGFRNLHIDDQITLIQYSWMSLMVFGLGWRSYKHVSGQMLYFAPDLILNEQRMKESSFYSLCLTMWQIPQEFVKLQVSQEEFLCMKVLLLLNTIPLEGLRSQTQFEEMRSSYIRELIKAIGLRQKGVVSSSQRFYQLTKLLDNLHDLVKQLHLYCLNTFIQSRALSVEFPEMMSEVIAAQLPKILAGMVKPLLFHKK

[11] = Clearance in Sprague-Dawley rat at 1 mg/kg, iv by LC-MS/MS analysis; assay type: ADME, organism-based; conditions: in vivo
[12] = Oral bioavailability in Sprague-Dawley rat at 3 mg/kg by LC-MS/MS analysis; assay type: ADME, organism-based; conditions: in vivo
Glucocorticoid receptor = target: T3, Glucocorticoid receptor (Homo sapiens, UniProt P04150)
T3 sequence (P04150 whole entry): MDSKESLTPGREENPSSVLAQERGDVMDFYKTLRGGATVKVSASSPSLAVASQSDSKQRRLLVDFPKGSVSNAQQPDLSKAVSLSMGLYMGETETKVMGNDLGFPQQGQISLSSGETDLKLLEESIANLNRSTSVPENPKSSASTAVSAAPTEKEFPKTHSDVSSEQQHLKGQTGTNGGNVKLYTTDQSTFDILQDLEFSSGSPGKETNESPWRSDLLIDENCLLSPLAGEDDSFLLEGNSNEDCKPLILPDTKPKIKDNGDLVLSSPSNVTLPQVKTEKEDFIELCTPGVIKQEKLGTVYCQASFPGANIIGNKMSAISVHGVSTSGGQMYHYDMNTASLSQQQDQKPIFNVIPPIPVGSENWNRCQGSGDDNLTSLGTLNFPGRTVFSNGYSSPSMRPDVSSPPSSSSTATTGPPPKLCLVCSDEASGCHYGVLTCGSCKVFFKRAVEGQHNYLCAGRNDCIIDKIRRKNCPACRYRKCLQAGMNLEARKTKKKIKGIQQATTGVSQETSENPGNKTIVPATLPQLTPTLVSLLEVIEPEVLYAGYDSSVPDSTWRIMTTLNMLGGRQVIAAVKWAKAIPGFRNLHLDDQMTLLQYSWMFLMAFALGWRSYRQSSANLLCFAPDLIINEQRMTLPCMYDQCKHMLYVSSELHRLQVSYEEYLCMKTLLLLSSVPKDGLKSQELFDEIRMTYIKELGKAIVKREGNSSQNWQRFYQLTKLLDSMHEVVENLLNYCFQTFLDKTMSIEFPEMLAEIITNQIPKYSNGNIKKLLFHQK
Description: Binding affinity to recombinant human GR LBD by fluormone GS red-fluorescence polarization assay

[13] = Intrinsic clearance in human liver microsomes at 1 uM measured up to 30 mins in presence of NADPH by LC-MS/MS analysis; assay type: ADME, Microsome; conditions: read-out: CLH
[14] = Kinetic solubility of compound at pH 7.4 after 24 hrs by shake-flask assay; assay type: physicochemical; conditions: buffer, read-out: -log(solubility) (converted)
[15] = Volume of distribution at steady state in Sprague-Dawley rat at 1 mg/kg, iv by LC-MS/MS analysis; assay type: ADME, organism-based; conditions: in vivo, read-out: Vdss
[16] = Terminal half life in Sprague-Dawley rat at 1 mg/kg, iv by LC-MS/MS analysis; assay type: ADME, organism-based; conditions: in vivo, read-out: beta t1/2 (converted)
[17] = target: T1, Mineralocorticoid receptor; conditions: u2os
Description: as §1

[18] = Terminal half life in Han Wistar rat at 1 to 1.2 mg/kg, iv by LC-MS/MS analysis; assay type: ADME, organism-based; conditions: in vivo, read-out: beta t1/2 (converted)
[19] = Volume of distribution at steady state in Han Wistar rat at 1 to 1.2 mg/kg, iv by LC-MS/MS analysis; assay type: ADME, organism-based; conditions: in vivo, read-out: Vdss
[20] = Clearance in Han Wistar rat at 1 to 1.2 mg/kg, iv by LC-MS/MS analysis; assay type: ADME, organism-based; conditions: in vivo
[21] = Oral bioavailability in Han Wistar rat at 2.7 mg/kg by LC-MS/MS analysis; assay type: ADME, organism-based; conditions: in vivo

CNC(=O)C[C@H]1COc2cc(Cl)ccc2N1C(=O)c1ccc2c(c1)NC(=O)CO2
half-life [1]: 25.8 min | Papp at 10 µM [2]: 21 ×10⁻⁶ cm/s | fraction unbound at 4 h, 1 µM [3]: 0.4 | logD [4]: 2 | Vd [5]: 1.5 L/kg | IC50 [6]: 10 nM | hepatocyte CLint at 1 µM [7]: 19 µL/min/1e6 cells | Activity (Rattus norvegicus): Non-Toxic | bioavailability [8]: 11% | hepatocyte CLint at 1 µM [9]: 3 µL/min/1e6 cells | clearance [10]: 44 mL/min/kg

C[C@H]1COc2cc(F)ccc2N1C(=O)c1ccc2c(c1)NC(=O)CO2
fraction unbound at 4 h, 1 µM [3]: 0.091 | logD [4]: 2.6 | Ki (Progesterone receptor): 25100 nM | clearance [11]: 8 mL/min/kg | bioavailability [12]: 76% | hepatocyte CLint at 1 µM [7]: 14 µL/min/1e6 cells | Ki (Glucocorticoid receptor): 1260 nM | microsomal CLint at 1 µM [13]: 8 µL/min/mg | Activity (Rattus norvegicus): Toxic | solubility kinetic at 24 h [14]: 25.1 µM (≈ 8.6 µg/mL) | Vd [15]: 1.7 L/kg | half-life [16]: 144 min

CNC(=O)C[C@H]1COc2cc(F)ccc2N1C(=O)c1ccc2c(c1)NC(=O)CO2 [BALCINRENONE]
Papp at 10 µM [2]: 5 ×10⁻⁶ cm/s | fraction unbound at 4 h, 1 µM [3]: 0.61 | logD [4]: 1.4 | pIC50 [17]: 7.1 | hepatocyte CLint at 1 µM [7]: 5 µL/min/1e6 cells | half-life [18]: 28.8 min | Vd [19]: 0.7 L/kg | Activity (Rattus norvegicus): Non-Toxic | clearance [20]: 24 mL/min/kg | bioavailability [21]: 32% | hepatocyte CLint at 1 µM [9]: < 1 µL/min/1e6 cells
